The source made the active and inactive calls. No cut-off for these calls is given here.
What was measured:
[1] = target: Muscarinic acetylcholine receptor M3 (Homo sapiens, UniProt P20309); assay: GPCRScan assay: inhibition of M3; parameters: radioligand conc. used [nm] 0.3 – 1.0, parental cells stable CHO
[2] = target: GABA-A receptor; anion channel; assay: GPCRScan assay: inhibition of GABAA/BZP; assay type: protein-complex assay, Rattus norvegicus; parameters: radioligand conc. used [nm] 0.6 – 4.0, parental cells brain tissue
[3] = target: Free fatty acid receptor 1 (Homo sapiens, UniProt O14842); assay: IPOne assay
[4] = target: Peroxisome proliferator-activated receptor gamma (Homo sapiens) (UniProt P37231); assay: PPARG/H AG Eurofins SafetyScreen44 (BI); conditions: filed as agonist, Compound concentration 10.0 uM
Sequence of Peroxisome proliferator-activated receptor gamma (Homo sapiens) (P37231 whole entry): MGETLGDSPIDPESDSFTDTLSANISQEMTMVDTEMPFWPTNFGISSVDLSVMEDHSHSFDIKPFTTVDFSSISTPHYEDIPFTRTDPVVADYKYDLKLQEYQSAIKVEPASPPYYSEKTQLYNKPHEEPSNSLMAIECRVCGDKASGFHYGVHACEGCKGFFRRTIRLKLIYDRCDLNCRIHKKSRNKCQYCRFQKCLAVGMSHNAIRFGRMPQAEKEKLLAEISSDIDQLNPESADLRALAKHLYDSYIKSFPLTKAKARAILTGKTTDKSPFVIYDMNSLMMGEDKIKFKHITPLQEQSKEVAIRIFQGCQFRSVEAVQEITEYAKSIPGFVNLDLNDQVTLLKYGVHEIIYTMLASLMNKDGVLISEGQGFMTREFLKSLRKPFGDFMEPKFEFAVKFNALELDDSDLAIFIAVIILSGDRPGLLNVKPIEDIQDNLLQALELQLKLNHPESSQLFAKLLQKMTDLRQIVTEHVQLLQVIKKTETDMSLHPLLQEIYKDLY

[5] = target: T1, 5-hydroxytryptamine receptor 3A (Homo sapiens) (UniProt P46098); assay: 5HT3/HU Eurofins SafetyScreen44 (BI); conditions: Compound concentration 10.0 uM
T1 sequence (whole entry): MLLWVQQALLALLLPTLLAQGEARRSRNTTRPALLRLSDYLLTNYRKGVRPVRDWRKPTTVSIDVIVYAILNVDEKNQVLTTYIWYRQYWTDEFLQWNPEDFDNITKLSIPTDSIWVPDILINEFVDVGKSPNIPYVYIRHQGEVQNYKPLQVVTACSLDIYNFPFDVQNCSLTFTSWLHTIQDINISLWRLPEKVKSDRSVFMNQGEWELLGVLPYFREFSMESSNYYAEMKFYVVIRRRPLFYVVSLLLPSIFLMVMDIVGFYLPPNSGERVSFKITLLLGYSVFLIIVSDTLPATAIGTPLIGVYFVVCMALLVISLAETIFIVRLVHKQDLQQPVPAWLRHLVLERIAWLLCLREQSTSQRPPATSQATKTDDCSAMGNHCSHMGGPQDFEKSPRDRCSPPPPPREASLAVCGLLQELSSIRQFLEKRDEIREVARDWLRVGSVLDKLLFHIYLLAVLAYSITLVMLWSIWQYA

[6] = target: Voltage-dependent L-type calcium channel subunit alpha-1C (Rattus norvegicus, UniProt P22002); assay: CA+/DILSI/RA Eurofins SafetyScreen44 (BI); conditions: compound concentration 10 uM, read-out: % Ctrl
[7] = target: D(3) dopamine receptor (Homo sapiens) (UniProt P35462); assay: D3/HU Eurofins SafetyScreen44 (BI); conditions: Compound concentration 10.0 uM
Sequence of D(3) dopamine receptor (Homo sapiens) (P35462 whole entry): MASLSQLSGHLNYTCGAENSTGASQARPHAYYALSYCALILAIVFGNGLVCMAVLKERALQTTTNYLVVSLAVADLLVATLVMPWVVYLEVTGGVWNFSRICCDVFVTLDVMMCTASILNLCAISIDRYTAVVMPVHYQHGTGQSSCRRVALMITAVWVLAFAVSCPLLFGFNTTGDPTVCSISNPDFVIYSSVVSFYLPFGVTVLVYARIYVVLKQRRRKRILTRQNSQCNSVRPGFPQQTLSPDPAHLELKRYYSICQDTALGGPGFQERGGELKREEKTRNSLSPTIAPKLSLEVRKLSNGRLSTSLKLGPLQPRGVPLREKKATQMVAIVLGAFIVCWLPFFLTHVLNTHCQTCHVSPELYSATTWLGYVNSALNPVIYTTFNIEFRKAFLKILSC

[8] = target: Glutamate NMDA receptor (Rattus norvegicus) (UniProt P35439+Q00959+Q00960+Q00961+Q62645+Q8VHN2+Q9R1M7); assay: NMDAAGSI/RA Eurofins SafetyScreen44 (BI); conditions: filed as agonist, Compound concentration 10.0 uM
[9] = target: Glutamate receptor ionotropic, NMDA 1 (Rattus norvegicus) (UniProt P35439); assay: NMDAGLSI/RA Eurofins SafetyScreen44 (BI); conditions: Compound concentration 10.0 uM
[10] = target: Platelet-activating factor receptor (Homo sapiens) (UniProt P25105); assay: PAF/H Eurofins SafetyScreen44 (BI); conditions: Compound concentration 10.0 uM
Sequence of Platelet-activating factor receptor (Homo sapiens) (P25105 whole entry): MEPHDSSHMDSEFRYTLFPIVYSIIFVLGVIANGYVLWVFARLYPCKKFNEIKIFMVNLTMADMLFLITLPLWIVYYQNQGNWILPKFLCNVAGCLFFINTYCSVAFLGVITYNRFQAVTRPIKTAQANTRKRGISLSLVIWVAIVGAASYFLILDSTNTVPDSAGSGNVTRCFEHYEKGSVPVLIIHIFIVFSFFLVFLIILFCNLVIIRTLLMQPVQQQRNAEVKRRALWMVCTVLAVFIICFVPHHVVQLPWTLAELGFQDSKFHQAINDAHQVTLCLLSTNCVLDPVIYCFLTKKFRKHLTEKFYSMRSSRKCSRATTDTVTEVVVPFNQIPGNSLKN

[11] = target: 5-hydroxytryptamine receptor 2A (Homo sapiens) (UniProt P28223); assay: 5HT2AH_AGON Eurofins SafetyScreen44 (BI); conditions: filed as agonist, Compound concentration 10.0 uM
Sequence of 5-hydroxytryptamine receptor 2A (Homo sapiens) (P28223 whole entry): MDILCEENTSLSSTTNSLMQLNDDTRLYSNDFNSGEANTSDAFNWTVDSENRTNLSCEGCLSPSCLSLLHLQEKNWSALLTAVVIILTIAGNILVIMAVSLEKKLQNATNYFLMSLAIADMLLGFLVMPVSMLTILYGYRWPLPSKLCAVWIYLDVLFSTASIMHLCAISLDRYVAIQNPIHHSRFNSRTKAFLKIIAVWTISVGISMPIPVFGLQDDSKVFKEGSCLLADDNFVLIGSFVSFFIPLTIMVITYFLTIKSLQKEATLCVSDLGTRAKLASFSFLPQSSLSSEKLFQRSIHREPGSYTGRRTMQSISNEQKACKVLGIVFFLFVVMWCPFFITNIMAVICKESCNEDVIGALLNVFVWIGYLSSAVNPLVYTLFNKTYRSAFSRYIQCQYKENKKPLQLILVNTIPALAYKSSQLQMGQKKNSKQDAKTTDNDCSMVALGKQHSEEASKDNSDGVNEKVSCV

[12] = target: Adenosine receptor A2a (Homo sapiens) (UniProt P29274); assay: A2A/H Eurofins SafetyScreen44 (BI); conditions: filed as antagonist, Compound concentration 10.0 uM
Sequence of Adenosine receptor A2a (Homo sapiens) (P29274 whole entry): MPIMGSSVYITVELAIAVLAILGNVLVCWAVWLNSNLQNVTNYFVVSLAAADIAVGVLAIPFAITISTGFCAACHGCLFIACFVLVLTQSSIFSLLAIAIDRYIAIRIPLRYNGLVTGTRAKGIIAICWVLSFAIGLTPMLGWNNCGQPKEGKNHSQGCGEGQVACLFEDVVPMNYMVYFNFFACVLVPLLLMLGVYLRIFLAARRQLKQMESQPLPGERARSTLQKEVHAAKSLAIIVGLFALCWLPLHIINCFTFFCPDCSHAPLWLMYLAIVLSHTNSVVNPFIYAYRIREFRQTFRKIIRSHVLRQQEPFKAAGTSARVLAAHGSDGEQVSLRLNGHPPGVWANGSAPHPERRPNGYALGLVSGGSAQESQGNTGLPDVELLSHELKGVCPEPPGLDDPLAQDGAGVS

[13] = target: Histamine H2 receptor (Homo sapiens) (UniProt P25021); assay: H2/APT/HS Eurofins SafetyScreen44 (BI); conditions: filed as antagonist, Compound concentration 10.0 uM
[14] = target: hERG (KCNH2) (Homo sapiens, UniProt Q12809); assay: HERG_DOFETILIDE Eurofins SafetyScreen44 (BI); parameters: mode of action inhibitor; conditions: probe [3H] Dofetilide, compound concentration 10 uM, read-out: % Ctrl
Sequence of hERG (KCNH2) (Q12809 whole entry): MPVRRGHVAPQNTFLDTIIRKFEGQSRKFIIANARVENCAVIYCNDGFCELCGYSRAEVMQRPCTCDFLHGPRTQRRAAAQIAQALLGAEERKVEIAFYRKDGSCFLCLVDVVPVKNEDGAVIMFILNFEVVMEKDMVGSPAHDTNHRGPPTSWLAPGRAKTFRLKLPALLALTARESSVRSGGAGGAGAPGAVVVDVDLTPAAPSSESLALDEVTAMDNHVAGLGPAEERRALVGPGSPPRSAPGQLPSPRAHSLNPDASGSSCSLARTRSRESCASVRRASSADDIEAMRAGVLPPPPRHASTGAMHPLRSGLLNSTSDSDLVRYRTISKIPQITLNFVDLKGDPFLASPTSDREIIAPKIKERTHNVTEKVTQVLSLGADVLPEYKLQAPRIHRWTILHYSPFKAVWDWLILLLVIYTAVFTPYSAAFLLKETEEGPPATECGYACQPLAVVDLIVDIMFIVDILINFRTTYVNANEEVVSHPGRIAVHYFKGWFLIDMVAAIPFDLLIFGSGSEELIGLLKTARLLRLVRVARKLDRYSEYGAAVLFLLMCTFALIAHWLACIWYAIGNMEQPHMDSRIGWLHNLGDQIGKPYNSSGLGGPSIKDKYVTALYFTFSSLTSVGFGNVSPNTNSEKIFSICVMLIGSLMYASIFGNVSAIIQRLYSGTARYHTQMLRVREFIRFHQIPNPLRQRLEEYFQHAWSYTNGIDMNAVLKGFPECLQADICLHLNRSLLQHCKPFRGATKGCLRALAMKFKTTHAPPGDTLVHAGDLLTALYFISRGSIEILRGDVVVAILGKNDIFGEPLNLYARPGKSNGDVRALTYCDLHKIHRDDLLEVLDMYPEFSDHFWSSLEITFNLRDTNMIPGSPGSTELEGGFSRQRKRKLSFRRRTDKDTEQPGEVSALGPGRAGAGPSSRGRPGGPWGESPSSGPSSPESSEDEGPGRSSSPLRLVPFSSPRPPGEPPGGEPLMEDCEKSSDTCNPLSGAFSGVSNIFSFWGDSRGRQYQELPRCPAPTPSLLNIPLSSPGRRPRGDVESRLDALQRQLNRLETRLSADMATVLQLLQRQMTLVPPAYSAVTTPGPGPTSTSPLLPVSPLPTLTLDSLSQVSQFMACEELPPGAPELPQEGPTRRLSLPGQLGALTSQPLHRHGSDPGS

[15] = target: Potassium voltage-gated channel subfamily V member 1 (Rattus norvegicus) (UniProt P97557); assay: K+/VOLT/RA Eurofins SafetyScreen44 (BI); conditions: Compound concentration 10.0 uM
Sequence of Potassium voltage-gated channel subfamily V member 1 (Rattus norvegicus) (P97557 whole entry): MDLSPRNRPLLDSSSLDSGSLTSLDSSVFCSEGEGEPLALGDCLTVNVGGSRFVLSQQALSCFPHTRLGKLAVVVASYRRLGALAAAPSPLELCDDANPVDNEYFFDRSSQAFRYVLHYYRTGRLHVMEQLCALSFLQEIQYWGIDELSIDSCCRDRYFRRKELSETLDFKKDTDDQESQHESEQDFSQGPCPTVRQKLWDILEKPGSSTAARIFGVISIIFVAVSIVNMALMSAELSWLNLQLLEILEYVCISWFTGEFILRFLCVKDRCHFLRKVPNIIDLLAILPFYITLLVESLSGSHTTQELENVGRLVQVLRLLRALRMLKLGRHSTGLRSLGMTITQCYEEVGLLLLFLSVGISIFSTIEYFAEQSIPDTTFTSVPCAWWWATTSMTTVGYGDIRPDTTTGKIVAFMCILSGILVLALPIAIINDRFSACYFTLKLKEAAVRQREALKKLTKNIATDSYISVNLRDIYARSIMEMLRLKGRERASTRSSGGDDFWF

[16] = target: Tyrosine-protein kinase Lck (Homo sapiens) (UniProt P06239); assay: LCK_CE Eurofins SafetyScreen44 (BI); conditions: Compound concentration 10.0 uM
Sequence of Tyrosine-protein kinase Lck (Homo sapiens) (P06239 2-509 limits assumed): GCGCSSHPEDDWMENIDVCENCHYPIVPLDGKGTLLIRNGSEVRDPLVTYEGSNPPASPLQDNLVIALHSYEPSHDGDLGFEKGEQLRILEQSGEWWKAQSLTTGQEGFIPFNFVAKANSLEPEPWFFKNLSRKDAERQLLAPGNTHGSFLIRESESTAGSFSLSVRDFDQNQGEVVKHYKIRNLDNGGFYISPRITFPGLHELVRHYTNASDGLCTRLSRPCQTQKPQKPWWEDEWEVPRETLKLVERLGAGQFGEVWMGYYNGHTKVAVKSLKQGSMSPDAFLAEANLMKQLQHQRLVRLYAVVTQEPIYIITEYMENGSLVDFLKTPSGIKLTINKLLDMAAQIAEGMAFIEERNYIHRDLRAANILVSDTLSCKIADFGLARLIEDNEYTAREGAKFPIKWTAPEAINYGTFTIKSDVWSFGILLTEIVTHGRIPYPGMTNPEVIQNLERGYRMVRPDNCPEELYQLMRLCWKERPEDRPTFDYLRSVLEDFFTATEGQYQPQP

Sequence of Muscarinic acetylcholine receptor M3 (P20309 whole entry): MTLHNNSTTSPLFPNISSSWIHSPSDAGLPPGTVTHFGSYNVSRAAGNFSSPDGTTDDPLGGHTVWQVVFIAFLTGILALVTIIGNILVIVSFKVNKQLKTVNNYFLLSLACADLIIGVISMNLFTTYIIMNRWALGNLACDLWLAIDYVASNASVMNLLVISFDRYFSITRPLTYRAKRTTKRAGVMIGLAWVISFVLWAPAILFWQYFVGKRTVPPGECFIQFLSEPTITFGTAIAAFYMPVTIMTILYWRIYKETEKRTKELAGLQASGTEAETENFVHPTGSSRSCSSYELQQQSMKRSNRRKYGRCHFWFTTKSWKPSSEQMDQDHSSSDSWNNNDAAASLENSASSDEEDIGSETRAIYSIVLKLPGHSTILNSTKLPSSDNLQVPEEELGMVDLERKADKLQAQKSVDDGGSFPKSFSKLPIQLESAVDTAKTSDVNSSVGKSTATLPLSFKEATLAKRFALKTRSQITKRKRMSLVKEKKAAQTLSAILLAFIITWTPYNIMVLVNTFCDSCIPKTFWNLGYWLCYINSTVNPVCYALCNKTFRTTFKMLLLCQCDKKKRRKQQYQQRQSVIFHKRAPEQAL

| SMILES | Ki [1] | pKi [1] | Ki [2] | pKi [2] | EC50 [3] | residual activity [4] | residual activity [5] | activity at 10 µM [6] | residual activity [7] | residual activity [8] | residual activity [9] | residual activity [10] | residual activity [11] | residual activity [12] | residual activity [13] | activity at 10 µM [14] | residual activity [15] | residual activity [16] |
| --- | --- | --- | --- | --- | --- | --- | --- | --- | --- | --- | --- | --- | --- | --- | --- | --- | --- | --- |
| Cc1cc(OCCC(C)(C)O)cc(C)c1-c1ccc(F)c2c1CC[C@H]2Oc1ccc2c(c1)OC[C@H]2CC(=O)O | > 10 µM | < 5 | > 10 µM | < 5 | 3 nM (active) | 8% | 100% | 100% (not active) | 63% | 89% | 86% | 97% |  |  |  |  |  |  |
| COCCCS(=O)(=O)c1cc(C)c(-c2ccc(F)c3c2CC[C@H]3Oc2ccc3c(c2)OC[C@H]3CC(=O)O)c(C)c1 |  |  |  |  |  |  |  |  |  |  |  |  | 101% | 102% | 93% | 93% (not active) | 108% | 77% |
